# Test results from USRE40086E1, “Method for treating bacterial infection with novel 7-substituted-9-substituted amino 6-demethyl-6-deoxytetracyclines” (Wyeth Holdings Corporation, priority 1991, dated 2008).
# Counter-ions that a name gives are not always drawn. Like-named read-outs stand apart in the source and are kept apart here.
# Tests used:
# [1] = system: S. aureus UBMS 88-4 (Sensitive); test: MIC, agar dilution; format: cell-based; details: S. aureus UBMS 88-4; Table IA; unit assumed
# [2] = system: E. coli UBMS 89-1 (tetM); test: MIC, agar dilution; format: cell-based; details: E. coli UBMS 89-1 TetM; Table IA; unit assumed
# [3] = system: E. coli J3272 TetC; test: MIC, agar dilution (Table IA); format: cell-based; details: unit assumed
# [4] = system: E. faecalis ATCC 29212; test: MIC, agar dilution; format: cell-based; details: E. faecalis ATCC 29212; Table IA; unit assumed
# [5] = system: S. aureus Smith (Sensitive); test: MIC, agar dilution; format: cell-based; details: S. aureus SMITH (MP); Table IA; unit assumed
# [6] = system: S. aureus UBMS 88-7 (tetK); test: MIC, agar dilution; format: cell-based; details: S. aureus UBMS 88-7 TetK; Table IA; unit assumed
# [7] = system: E. coli UBMS 89-2 (Sensitive); test: MIC, agar dilution; format: cell-based; details: E. coli UBMS 89-2 Tet Sens.; Table IA; unit assumed
# [8] = system: E. coli PRP1 TetA; test: MIC, agar dilution (Table IA); format: cell-based; details: unit assumed
# [9] = system: S. aureus SMITH (sens); test: In vivo antibacterial evaluation, acute lethal infection in mice; details: Oral
# Excerpt: In Vivo Antibacterial Evaluation (Table VII)
# [10] = system: S. aureus IVES 2943 (meth. resistant); test: MIC, agar dilution; format: cell-based; details: S. aureus IVES 2943; Table IA; unit assumed
# [11] = system: E. coli ATCC 25922; test: MIC, agar dilution; format: cell-based; details: E. coli ATCC 25922; Table IA; unit assumed
# [12] = system: E. coli BAJ9003; test: MIC, agar dilution (Table IA); format: cell-based
# [13] = system: E. coli J2175; test: MIC, agar dilution (Table IA); format: cell-based; details: unit assumed
# [14] = system: E. coli UBMS 90-4 (tetM); test: MIC, agar dilution; format: cell-based; details: E. coli UBMS 90-4 TetM; Table IA; unit assumed
# [15] = system: S. aureus UBMS 88-5 (tetM); test: MIC, agar dilution; format: cell-based; details: S. aureus UBMS 88-5 TetM; Table IA; unit assumed
# [16] = system: S. mariescens FDOR 8733; test: MIC, agar dilution (Table IA); format: cell-based; details: unit assumed
# [17] = system: S. aureus UBMS 90-2 (tetM); test: MIC, agar dilution; format: cell-based; details: S. aureus UBMS 90-2 TetM; Table IA; unit assumed
# [18] = system: E. coli MC4100 Tet sens.; test: MIC, agar dilution (Table IA); format: cell-based; details: unit assumed
# [19] = system: E. coli MC4100 TetB; test: MIC, agar dilution (Table IA); format: cell-based; details: unit assumed
# [20] = system: E. faecalis 12201; test: MIC, agar dilution; format: cell-based; details: Enterococcus 12201; Table IA; unit assumed
# [21] = system: S. aureus ATCC 29213 (Sensitive); test: MIC, agar dilution; format: cell-based; details: S. aureus ATCC 29213; Table IA; unit assumed
# [22] = system: S. aureus UBMS 90-3 (Sensitive); test: MIC, agar dilution; format: cell-based; details: S. aureus UBMS 90-3; Table IA; unit assumed
# [23] = system: E. coli UBMS 88-1 (tetB); test: MIC, agar dilution; format: cell-based; details: E. coli UBMS 88-1 TetB; Table IA; unit assumed
# [24] = system: S. haemolyticus AVAH 88-3; test: MIC, agar dilution; format: cell-based; details: S. hemolyticus AVHAH 88-3; Table IA; unit assumed
# [25] = system: E. coli #311 (MP); test: MIC, agar dilution (Table IA); format: cell-based; details: unit assumed
# [26] = system: S. aureus NEMC 8769/89-4; test: MIC, agar dilution (Table IA); format: cell-based
# [27] = system: S. aureus ROSE (MP); test: MIC, agar dilution (Table IA); format: cell-based; details: unit assumed
# [28] = system: S. aureus IVES 1983 (meth. resistant); test: MIC, agar dilution; format: cell-based; details: S. aureus IVES 1983; Table IA; unit assumed
# [29] = system: E. coli UBMS 90-5; test: MIC, agar dilution (Table IA); format: cell-based; details: unit assumed
# [30] = system: E. coli J3272 TetD; test: MIC, agar dilution (Table IA); format: cell-based; details: unit assumed
# [31] = system: X. maltophilia NEMC 87210; test: MIC, agar dilution (Table IA); format: cell-based; details: unit assumed
# [32] = system: S. aureus UBMS 90-1 (tetM); test: MIC, agar dilution; format: cell-based; details: S. aureus UBMS 90-1 TetM; Table IA; unit assumed
# [33] = system: Ps. acruginosa ATCC 27853; test: MIC, agar dilution (Table IA); format: cell-based; details: unit assumed
# [34] = system: S. aureus SMITH (sens); test: In vivo antibacterial evaluation, acute lethal infection in mice; details: Intraveneous
# [35] = system: E. coli J3272 Tet sens.; test: MIC, agar dilution (Table IA); format: cell-based; details: unit assumed
SMILES,Antibacterial activity (MIC) [1] [µg/mL],Antibacterial activity (MIC) [2] [µg/mL],Antibacterial activity (MIC) [3] [µg/mL],Antibacterial activity (MIC) [4] [µg/mL],Antibacterial activity (MIC) [5] [µg/mL],Antibacterial activity (MIC) [6] [µg/mL],Antibacterial activity (MIC) [7] [µg/mL],Antibacterial activity (MIC) [8] [µg/mL],ED50 [9] [mg/kg],Antibacterial activity (MIC) [10] [µg/mL],Antibacterial activity (MIC) [11] [µg/mL],Antibacterial activity (MIC) [13] [µg/mL],Antibacterial activity (MIC) [14] [µg/mL],Antibacterial activity (MIC) [16] [µg/mL],Antibacterial activity (MIC) [17] [µg/mL],Antibacterial activity (MIC) [19] [µg/mL],Antibacterial activity (MIC) [20] [µg/mL],Antibacterial activity (MIC) [21] [µg/mL],Antibacterial activity (MIC) [22] [µg/mL],Antibacterial activity (MIC) [23] [µg/mL],further results
"CCCCCNCC(=O)Nc1cc(N(C)C)c2c(c1O)C(=O)C1=C(O)C3(O)C(=O)C(C(N)=O)=C(O)C(N(C)C)C3CC1C2.Cl.Cl (stereo not drawn) [DDD, [4S-(4alpha,12aalpha)]-4,7-Bis(dimethylamino)-1,4 4a,5,5a,6,11,12a-octahydro-3,10-12,12a-tetrahydroxy-1,11-dioxo-9-[[(pentylamino)acetyl]amino)-2-naphthacenecarboxamide dihydrochloride]",0.5,0.25,0.5,0.25,0.25,2,0.5,1,8 to 16,4,0.5,0.5,0.5,8,0.5,0.5,0.25,1,0.5,0.5,Antibacterial activity (MIC) ([12]; unit assumed): 0.12 µg/mL; Antibacterial activity (MIC) [15]: 0.5 µg/mL; Antibacterial activity (MIC) [18]: 0.12 µg/mL; Antibacterial activity (MIC) [24]: 0.5 µg/mL; Antibacterial activity (MIC) [25]: 0.5 µg/mL; Antibacterial activity (MIC) ([26]; unit assumed): 0.25 µg/mL; Antibacterial activity (MIC) [27]: 4 µg/mL; Antibacterial activity (MIC) [28]: 4 µg/mL; Antibacterial activity (MIC) [29]: 0.5 µg/mL; Antibacterial activity (MIC) [30]: 0.25 µg/mL; Antibacterial activity (MIC) [31]: 0.5 µg/mL; Antibacterial activity (MIC) [32]: 1 µg/mL; Antibacterial activity (MIC) [33]: 32 µg/mL
"CN(C)c1cc(NC(=O)CNCc2ccccc2)c(O)c2c1CC1CC3C(N(C)C)C(O)=C(C(N)=O)C(=O)C3(O)C(O)=C1C2=O.Cl.Cl (stereo not drawn) [EEE, [4S-(4alpha,12aalpha)]-4,7-Bis(dimethylamino)-1,4,4a,5,5a,6,11,12a-octahydro-3,10,12,12a-tetrahydroxy-1,11-dioxo-9-[[[(phenylmethyl)amino]acetyl]amino]-2-naphthacenecarboxamide dihydrochloride]",0.25,0.5,2,0.25,0.25,2,4,4,8 to 16,2,0.5,4,0.5,4,0.25,4,0.25,0.5,0.25,2,Antibacterial activity (MIC) ([12]; unit assumed): 0.25 µg/mL; Antibacterial activity (MIC) [15]: 0.5 µg/mL; Antibacterial activity (MIC) [18]: 0.5 µg/mL; Antibacterial activity (MIC) [24]: 2 µg/mL; Antibacterial activity (MIC) [25]: 0.5 µg/mL; Antibacterial activity (MIC) ([26]; unit assumed): 0.12 µg/mL; Antibacterial activity (MIC) [27]: 8 µg/mL; Antibacterial activity (MIC) [28]: 2 µg/mL; Antibacterial activity (MIC) [29]: 0.5 µg/mL; Antibacterial activity (MIC) [30]: 0.5 µg/mL; Antibacterial activity (MIC) [31]: 1 µg/mL; Antibacterial activity (MIC) [32]: 0.5 µg/mL; Antibacterial activity (MIC) [33]: 32 µg/mL
"CN(C)CC(=O)Nc1cc(N(C)C)c2c(c1O)C(=O)C1=C(O)C3(O)C(=O)C(C(N)=O)=C(O)C(N(C)C)C3CC1C2 (stereo not drawn) [LL, [4S-(4alpha,12aalpha)]-4,7-Bis(dimethylamino)-9-[[(dimethylamino)acetyl]amino]-1,4,4a,5,5a,6,11,12a-octahydro-3,10,12,12a-tetrahydroxy-1,11-dioxo-2-naphthacenecarboxamide]",0.06,0.12,0.5,0.06,0.06,0.5,0.12,1,4 to 8,1,0.12,0.12,0.25,2,0.12,0.25,0.06,0.06,0.06,0.25,ED50 [34]: 0.25 to 0.5 mg/kg; Antibacterial activity (MIC) [15]: 0.12 µg/mL; Antibacterial activity (MIC) [35]: 0.12 µg/mL; Antibacterial activity (MIC) [24]: 0.12 µg/mL; Antibacterial activity (MIC) [25]: 0.12 µg/mL; Antibacterial activity (MIC) [26]: ≦0.015; Antibacterial activity (MIC) [27]: 1 µg/mL; Antibacterial activity (MIC) [28]: 1 µg/mL; Antibacterial activity (MIC) [29]: 0.12 µg/mL; Antibacterial activity (MIC) [30]: 0.06 µg/mL; Antibacterial activity (MIC) [31]: 0.25 µg/mL; Antibacterial activity (MIC) [32]: 0.12 µg/mL; Antibacterial activity (MIC) [33]: 4 µg/mL
"CN(C)c1cc(NC(=O)CN2CCCC2)c(O)c2c1CC1CC3[C@H](N(C)C)C(O)=C(C(N)=O)C(=O)[C@@]3(O)C(O)=C1C2=O (stereo partly drawn) [SS, [7S-(7alpha,10aalpha)]-N-[9-(Aminocarbonyl)-4,7-bis(dimethylamino)-5,5a,6,6a,7,10,10a,12-octahydro-1,8,10a,11-tetrahydroxy-10,12-dioxo-2-naphthacenyl]-1-pyrrolidineacetamide dihydrochloride]",0.12,0.12,0.25,0.12,0.12,0.5,0.25,0.5,8 to 16,1,0.25,0.25,0.25,2,0.12,0.25,0.12,0.12,0.12,0.25,ED50 [34]: 1 to 2 mg/kg; Antibacterial activity (MIC) [12]: ≦0.015; Antibacterial activity (MIC) [35]: 0.25 µg/mL; Antibacterial activity (MIC) [24]: 0.25 µg/mL; Antibacterial activity (MIC) [25]: 0.12 µg/mL; Antibacterial activity (MIC) ([26]; unit assumed): 0.03 µg/mL; Antibacterial activity (MIC) [27]: 1 µg/mL; Antibacterial activity (MIC) [28]: 0.5 µg/mL; Antibacterial activity (MIC) [29]: 0.25 µg/mL; Antibacterial activity (MIC) [30]: 0.12 µg/mL; Antibacterial activity (MIC) [31]: 0.5 µg/mL; Antibacterial activity (MIC) [32]: 0.12 µg/mL; Antibacterial activity (MIC) [33]: 16 µg/mL
